Measured values from PMC8273890, “Development of [^18F]AldoView as the First Highly Selective Aldosterone Synthase PET Tracer for Imaging of Primary Hyperaldosteronism” (Journal of Medicinal Chemistry, 2021).
Entries after “also recorded” stand apart in the source; their conditions may differ.

Molecular target: T1, CYP11B2 (Homo sapiens, UniProt P19099)
T1 construct: from tissue
T1 sequence (P19099 25-503): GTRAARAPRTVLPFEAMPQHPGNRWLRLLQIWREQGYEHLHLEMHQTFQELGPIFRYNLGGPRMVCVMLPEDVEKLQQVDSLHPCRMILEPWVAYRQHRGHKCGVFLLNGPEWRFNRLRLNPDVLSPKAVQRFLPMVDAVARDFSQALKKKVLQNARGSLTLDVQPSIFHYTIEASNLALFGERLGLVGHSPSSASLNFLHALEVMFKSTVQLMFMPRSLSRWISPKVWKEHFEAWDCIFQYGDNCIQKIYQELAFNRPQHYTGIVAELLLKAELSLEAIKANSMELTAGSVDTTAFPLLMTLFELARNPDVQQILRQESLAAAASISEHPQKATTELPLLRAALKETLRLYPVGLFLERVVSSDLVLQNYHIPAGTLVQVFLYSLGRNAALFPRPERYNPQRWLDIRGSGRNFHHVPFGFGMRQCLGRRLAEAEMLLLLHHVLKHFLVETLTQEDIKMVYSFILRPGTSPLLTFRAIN
Assay: Quantitative phosphorimaging (in vitro autoradiography) in human adrenal tissue sections
Type: binding
Settings: for NSB (non-specific binding): with 25 μM AldoView
Excerpt: Adrenal surgical specimens were obtained from patients with Conn’s disease, Cushing’s disease, pheochromocytoma, and adrenal tumors, who had consented to the use of their tissue for research applications. Ethical approval was obtained from the UK Multicentre Research Ethics Committee (06/Q0104/133). Following routine adrenalectomy, surgical specimens were immediately flash frozen using a slurry of isopentane and dry ice. Cryosections (20 μm) obtained from the frozen tissue blocks were mounted on lysine-coated microscope slides and stored at −80 °C.
Thawed tissue sections on microscopic slides were dipped in pentane for 5 s to degrease the tissue. This step was required to avoid nonspecific binding (NSB), in particular to medullar fat. Tissue sections were subsequently rehydrated in tris-buffered saline (TBS; pH = 7.5) for 30 min and subsequently incubated with a solution of [^18F]AldoView in TBS for 60 min (1 mL per slide). For determination of the total binding (TB), [^18F]AldoView was diluted with TBS to a concentration of 2 MBq/mL. For the determination of NSB, a solution of the nonradioactive reference compound in ethanol (3.5 mM) was added to a solution of [^18F]AldoView in TBS and diluted to give a final AldoView concentration of 25 μM and a final [^18F]AldoView concentration of 2 MBq/mL. After incubation, unbound [^18F]AldoView was removed by washing the sections in ice-cold TBS (three times for 5 min) and water (1 min). Internal standards were prepared by serial dilution of the [^18F]AldoView solution used for determination of the TB. Tissue sections and internal standards absorbed on filter paper were left to air-dry and subsequently exposed to a phosphor screen (BAS-IP MS; GE Healthcare) overnight. Phosphorimaging was performed on a Typhoon Trio scanner (GE Healthcare). All phosphorimaging experiments were performed in at least three adjacent tissue sections per case, tissue block, and experimental condition (TB, NSB). Quantification of phosphor images was performed using the analysis software ImageJ (version 1.48).[28] Determination of TB and NSB (in kBq/cm^2; Table S1) was based on correlation curves generated from the internal standards. The specific [^18F]AldoView binding was calculated as the difference between TB and NSB.

[1] = specimen 1b (high), case 1, PHA
[2] = specimen 2b (high), case 2, PHA
[3] = specimen 2c (high), case 2, PHA
[4] = specimen 3b (high), case 3, PHA
[5] = specimen 6a, case 6, pheochromocytoma
[6] = specimen 6b, case 6, pheochromocytoma
[7] = specimen 7a, case 7, adrenal tumor

## Fc1cc2nc(-c3cncc([18F])c3)n(C3CC3)c2cc1F [[^18F]AldoView]
N = 3
  tracer binding in specimens from control subjects: 2.6 ± 1.8 kBq/cm^2
N = 4
  tracer binding in CYP11B2-negative areas in specimens from patients with PHA: 3.2 ± 1.1 kBq/cm^2
Specimen 1a, case 1, PHA
  SB (specific binding): 19.7 kBq/cm2
  TB (total binding): 20.1 kBq/cm2
  NSB (non-specific binding): 0.4 kBq/cm2
[1]
  SB (specific binding): 8.6 kBq/cm2
  TB (total binding): 17.9 kBq/cm2
  NSB (non-specific binding): 9.3 kBq/cm2
Specimen 1b (low), case 1, PHA
  SB (specific binding): 4.8 kBq/cm2
  TB (total binding): 5.6 kBq/cm2
  NSB (non-specific binding): 0.9 kBq/cm2
Specimen 2a, case 2, PHA
  SB (specific binding): 2.5 kBq/cm2
  TB (total binding): 2.8 kBq/cm2
  NSB (non-specific binding): 0.3 kBq/cm2
[2]
  SB (specific binding): 18.9 kBq/cm2
  TB (total binding): 20.2 kBq/cm2
  NSB (non-specific binding): 1.3 kBq/cm2
Specimen 2b (low), case 2, PHA
  SB (specific binding): 2.1 kBq/cm2
  TB (total binding): 2.4 kBq/cm2
  NSB (non-specific binding): 0.3 kBq/cm2
[3]
  SB (specific binding): 19.1 kBq/cm2
  TB (total binding): 20.0 kBq/cm2
  NSB (non-specific binding): 1.0 kBq/cm2
Specimen 2c (low), case 2, PHA
  SB (specific binding): 3.0 kBq/cm2
  TB (total binding): 3.3 kBq/cm2
  NSB (non-specific binding): 0.3 kBq/cm2
Specimen 3a, case 3, PHA
  SB (specific binding): 6.8 kBq/cm2
  TB (total binding): 7.6 kBq/cm2
  NSB (non-specific binding): 0.7 kBq/cm2
[4]
  SB (specific binding): 10.4 kBq/cm2
  TB (total binding): 15.5 kBq/cm2
  NSB (non-specific binding): 5.1 kBq/cm2
Specimen 3b (low), case 3, PHA
  SB (specific binding): 3.0 kBq/cm2
  TB (total binding): 4.3 kBq/cm2
  NSB (non-specific binding): 1.2 kBq/cm2
Specimen 4a, case 4, PHA
  SB (specific binding): 3.6 kBq/cm2
  TB (total binding): 4.2 kBq/cm2
  NSB (non-specific binding): 0.6 kBq/cm2
Specimen 4b, case 4, PHA
  SB (specific binding): 16.5 kBq/cm2
  TB (total binding): 18.4 kBq/cm2
  NSB (non-specific binding): 1.9 kBq/cm2
Specimen 5a, case 5, PHA
  SB (specific binding): 5.1 kBq/cm2
  TB (total binding): 5.9 kBq/cm2
  NSB (non-specific binding): 0.8 kBq/cm2
Specimen 5b, case 5, PHA
  SB (specific binding): 4.2 kBq/cm2
  TB (total binding): 5.1 kBq/cm2
  NSB (non-specific binding): 0.9 kBq/cm2
Specimen 5c, case 5, PHA
  SB (specific binding): 3.5 kBq/cm2
  TB (total binding): 4.5 kBq/cm2
  NSB (non-specific binding): 1.0 kBq/cm2
[5]
  SB (specific binding): < LOQ; also recorded: limit of quantification
  TB (total binding): < LOQ
  NSB (non-specific binding): < LOQ
[6]
  SB (specific binding): 4.0 kBq/cm2
  TB (total binding): 5.3 kBq/cm2
  NSB (non-specific binding): 1.3 kBq/cm2
[7]
  SB (specific binding): 0.5 kBq/cm2
  TB (total binding): 1.7 kBq/cm2
  NSB (non-specific binding): 1.2 kBq/cm2
Specimen 8a, case 8, Cushing's
  SB (specific binding): 3.2 kBq/cm2
  TB (total binding): 3.7 kBq/cm2
  NSB (non-specific binding): 0.5 kBq/cm2
